Experimental findings from patent US20060210480A1, “Treatment of reduction of dysphagia” (priority 2005, published 2006) are described below.

The test system of assay [1] is swallowing response. Briefly: Ten-minute infusion of taste stimuli directly into the stomach; pharyngeal MEP (Example 3). Type of assay: in vivo, human. The following applies: volunteers; ten minute infusion administered directly to the stomach. The text has this: The ability of substances such as the […] tasting alkaloid quinine to stimulate the swallowing response when administered into the portion of the upper digestive tract below the mouth was in a third study measuring swallowing reflexes of volunteers receiving neutral, pleasant or aversive taste stimuli. Volunteers receive a ten minute infusion of neutral (water), pleasant (glucose) or aversive (quinine) taste stimuli administered directly into the volunteer's stomach.

Assay [2] has as its system swallowing response. Briefly: Ten-minute infusion of taste stimuli onto the taste receptors of the tongue; pharyngeal MEP (Example 2). The following applies: volunteers; ten minute infusion to tongue taste receptors; taken over a 60 minute period from administration. The assay is classed as in vivo, human. The text has this: Confirmation of the suitability of […] tasting substances such as the alkaloid quinine to stimulate the swallowing response and thereby aid treatment or reduction of dysphagia was obtained from a second study measuring swallowing reflexes of volunteers receiving neutral, pleasant or aversive taste stimuli. Volunteers receive a ten minute infusion of neutral (water), pleasant (glucose) or aversive (quinine) taste stimuli administered such that they stimulated the taste receptors of the tongue.

Assay [3] relates to human cortical swallowing pathways. In words: Ten-minute liquid swallowing task with taste solutions; TMS-evoked cortico-pharyngeal motor responses (Example 1). The assay is classed as in vivo. Conditions: 8 healthy adult volunteers; 0.5 mM quinine hydrochloride swallowing task; immediately and throughout 60 minutes post-intervention; p<0.01. Here is the method:
An assessment was made as to the effects of different taste stimuli on human cortical swallowing pathways. The assessment was made upon 8 healthy adult volunteers (seven of which were male, the minimum age of the volunteers being 29 years).
Each volunteer performed a ten-minute, liquid swallowing task using three (previously titrated) different taste solutions. The three solutions utilised were sterile water (neutral taste), 10% glucose (sweet/pleasant taste), and 0.5 mM quinine hydrochloride (bitter/aversive taste). Solutions were randomised to separate studies at least 24 hours apart.
Transcranial magnetic stimulation was performed over the swallowing motor cortex, before and up to one hour after each swallow task in accordance with established protocols. Briefly, Single pulse (monophasic) transcranial stimulation (sTMS) of the cerebral cortex was achieved using a magnetic stimulator (a Magstim 200, manufactured by MAGSTIM Company Limited, Whitland, Wales) connected to a 70 mm outer diameter figure-of-8 coil (maximal output of 2.2 Tesla (T)), held in an A-P (Anterior-Posterior) direction, at an angle of 45° tangential to the scalp. […]
Cortico-pharyngeal motor responses were recorded from a swallowed intra-luminal catheter as a measure of cortical excitability. […]

For the molecule `C=C[C@H]1C[N@@]2CC[C@H]1C[C@H]2[C@H](O)c1ccnc2ccc(OC)cc12` [quinine], the “increase in the swallowing response (measured by MEP)” value in assay [1] was determined as 39%. Moreover, in assay [2], the “increase in the amplitude of MEP compared with neutral tasting water or pleasant tasting glucose” value is given as “greater increase”. Besides, the “maximum percentage change from base line in pharyngeal motor evoked potential (MEP) amplitude” value in assay [3] is listed as 48±11%.
